Test results published in PMC6131501, “Urate transporter inhibitor lesinurad is a selective peroxisome proliferator-activated receptor gamma modulator (sPPARγM) in vitro” (Scientific Reports, 2018).
“Also recorded” adds a separate entry of the source. Like-named read-outs stand apart in the source and are kept apart here. One block for each molecule: values may come before it. No end group written: not given here. *: point of attachment. Biotin = O=C1N[C@H]2[C@H](CS[C@H]2CCCCC(=O)*)N1

Key:
PXR = tested on: PXR; design: method as in PMID 16565514; conditions: literature value; cited from earlier work
PPARγ [1] = target: T1, PPARγ (Homo sapiens, UniProt P37231); experiment: Gal4 hybrid reporter gene assay PPARγ; type: cell-based; conditions: Gal4 hybrid reporter, HEK293T, 12-14 h; mean ± SEM, at least three experiments
T1 construct: expressed in transfected cells; host or cells: HEK293T
T1 sequence (P37231 238-503 limits assumed): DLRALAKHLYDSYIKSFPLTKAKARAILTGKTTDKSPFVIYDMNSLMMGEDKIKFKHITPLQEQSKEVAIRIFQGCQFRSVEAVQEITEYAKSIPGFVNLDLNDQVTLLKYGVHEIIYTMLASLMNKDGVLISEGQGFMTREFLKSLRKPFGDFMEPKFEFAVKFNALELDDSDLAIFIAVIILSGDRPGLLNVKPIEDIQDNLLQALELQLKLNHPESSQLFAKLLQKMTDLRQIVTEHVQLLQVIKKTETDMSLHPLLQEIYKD
From the text: (§1) These in vitro test systems are based on a constitutively expressed hybrid receptor composed of the ligand binding domain of the respective human nuclear receptor and the DNA binding domain of the yeast receptor Gal4. A Gal4-inducible firefly luciferase serves as reporter gene and a constitutively expressed renilla luciferase is used for normalization of transfection efficacy and internal toxicity control[18],[19]. […] The Gal4-fusion receptor plasmids pFA-CMV-hPPARα-LBD[50], pFA-CMV-hPPARγ-LBD[50], pFA-CMV-hPPARδ-LBD[50], pFA-CMV-hLXRα-LBD[51], pFA-CMV-hLXRβ-LBD[51], pFA-CMV-hRXRα-LBD[52], pFA-CMV-hRXRβ-LBD[52], pFA-CMV-hRXRγ-LBD[52], pFA-CMV-hRARα-LBD[52], pFA-CMV-hRARβ-LBD[52], pFA-CMV-hRARγ-LBD[52], pFA-CMV-hFXR-LBD[53], pFA-CMV-hVDR-LBD[52], pFA-CMV-hCAR-LBD[52] and pFA-CMV-hPXR-LBD[52] coding for the hinge region and ligand binding domain (LBD) of the canonical isoform of the respective nuclear receptor have been reported previously. pFR-Luc (Stratagene) was used as reporter plasmid and pRL-SV40 (Promega) for normalization of transfection efficiency and cell growth.
(§2) HEK293T cells were grown in DMEM high glucose, supplemented with 10% FCS, sodium pyruvate (1 mM), penicillin (100 U/mL) and streptomycin (100 μg/mL) at 37 °C and 5% CO2. The day before transfection, HEK293T cells were seeded in 96-well plates (3·10^4 cells/well). Before transfection, medium was changed to Opti-MEM without supplements. Transient transfection was carried out using Lipofectamine LTX reagent (Invitrogen) according to the manufacturer’s protocol with pFR-Luc (Stratagene), pRL-SV40 (Promega) and the corresponding Gal4-fusion nuclear receptor plasmid. 5 h after transfection, medium was changed to Opti-MEM supplemented with penicillin (100 U/mL), streptomycin (100 μg/mL), now additionally containing 0.1% DMSO and the respective test compound or 0.1% DMSO alone as untreated control. Each concentration was tested in duplicates and each experiment was repeated independently at least three times. Following overnight (12-14 h) incubation with the test compounds, cells were assayed for luciferase activity using Dual-Glo™ Luciferase Assay System (Promega) according to the manufacturer’s protocol. Luminescence was measured with an Infinite M200 luminometer (Tecan Deutschland GmbH). […] Fold activation was obtained by dividing the mean RLU of a test compound at a respective concentration by the mean RLU of untreated control.

murine PPARγ = conditions: read-out: PPARγ (EC50) literature; cited from earlier work
[2] = tested on: adiponectin plasma levels; design: method as in PMID 19048458; conditions: in men; cited from earlier work
[3] = design: method as in PMID 18274627; conditions: HEK293T cells; cited from earlier work
3T3-L1 mouse fibroblasts = tested on: 3T3-L1 mouse fibroblasts; design: method as in PMID 19048458; conditions: cited from earlier work
PPARγ [4] = conditions: cited from earlier work
PPARα [5] = conditions: cited from earlier work
PPARα [6] = target: T2, PPARα (Homo sapiens, UniProt Q07869); experiment: Gal4 hybrid reporter gene assay PPARα; type: cell-based; conditions: Gal4 hybrid reporter, HEK293T, 12-14 h; mean ± SEM, at least three experiments
T2 construct: expressed in transfected cells; host or cells: HEK293T
T2 sequence (Q07869 239-466 limits assumed): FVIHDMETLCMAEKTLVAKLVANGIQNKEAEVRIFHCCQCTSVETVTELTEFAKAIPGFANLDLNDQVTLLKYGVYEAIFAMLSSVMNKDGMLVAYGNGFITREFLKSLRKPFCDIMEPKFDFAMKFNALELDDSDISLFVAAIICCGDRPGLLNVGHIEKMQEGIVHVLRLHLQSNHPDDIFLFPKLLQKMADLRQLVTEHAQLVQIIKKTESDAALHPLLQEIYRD
From the text: as §1, §2

[7] = tested on: PPARγ-regulated genes in 3T3-L1 adipocytes; experiment: PPARγ target gene quantification in 3T3-L1 adipocytes (qPCR); type: cell-based, murine
Procedure: 3T3-L1 cells were cultured and differentiated as described above. Cells were then lysed using TRIzol reagent (Ambion, Life Technologies, Carlsbad, CA, USA), and mRNA was isolated following the manufacturer’s protocol. DNA contaminations were digested using DNase (DNase I, RNase-free kit; Thermo Scientific, Waltham, MA, USA) and mRNA concentrations were measured with a NanoDrop2000 spectrophotometer (Thermo Scientific, Waltham, MA, USA). Subsequently, reverse transcription was performed using the high capacity RNA-to-cDNA kit (Applied Biosystems, Foster City, CA, USA). Quantitative real-time PCR was performed using specific primers for CD36, […] and CPT1A with a StepOnePlus real-time PCR system (Applied Biosystems, Foster City, CA, USA). Non-POU domain containing octamer binding protein (NonO) was used as reference gene for 3T3-L1. All samples were measured in duplicate and were analyzed using the ΔΔCt method. The following PCR primers were used: Adiponectin: 5′-TGACGACACCAAAAGGGCTC-3′ (fwd) and 5′-CACAAGTTCCCTTGGGTGGA-3′ (rev); CD36: 5′-TGCTGGAGCTGTTATTGGTG-3′ (fwd) and 5′-CATGAGAATGCCTCCAAACA-3′ (rev); FABP4: 5′-AGAAGTGGGAGTGGGCTTTG-3′ (fwd) and 5′-ACTCTCTGACCGGATGGTGA-3′ (rev); GLUT4: 5′-TGAAGAACGGATAGGGAGCAG-3′ (fwd) and 5′-GAAGTGCAAAGGGTGAGTGAG-3′ (rev); NonO: 5′-TGCTCCTGTGCCACCTGGTACTC-3′ (fwd) and 5′-CCGGAGCTGGACGGTTGAATGC-3′ (rev).
Results (expressed as mean ± SEM % relative mRNA expression; n = 3): Adiponectin: untreated (0.1% DMSO): 124 ± 45%; […];

3T3-L1 adipocytes = experiment: Differentiation of 3T3-L1 adipocytes, Oil Red O staining; type: cell-based, murine; conditions: rosiglitazone 2 μM; lesinurad up to 50 μM
Procedure: For this, 3T3-L1 cells were treated with insulin, dexamethasone and isobutylmethylxanthine (IBMX) to induce their differentiation into mature adipocytes. […] 3T3-L1 cells were subcultured in DMEM containing 10% newborn calf serum in a humidified atmosphere at 37 °C, 5% CO2. Cells were differentiated into adipocytes within 14 days according to the method[54] reported by Zebisch and colleagues. In brief, cells were seeded in 6-well plates ([…]). […] At day 5, medium was changed to contain only insulin for another two days. Cells were then kept for lipid droplet accumulation in basal medium without additions until day 15. […] Differentiation of 3T3-L1 cells to adipocytes was confirmed by Oil Red O staining. For this, cells were washed with PBS and then fixed for 60 min with a formaldehyde solution (4% in PBS). Subsequently, cells were rinsed with 60% isopropanol and incubated with Oil Red O solution (0.3%) for 120 min.

[8] = target: recombinant PPARγ LBD ligand binding domain fused to N-terminal GFP (human); experiment: AlphaScreen or HTRF; homogeneous time-resolved FRET; 12 nM GFP-PPARγ LBD (acceptor) and 12 nM streptavidin-terbium cryptate with biotinylated coactivator peptide (donor); lesinurad at varying concentrations, 1% DMSO; 25 mM HEPES pH 7.5, 150 mM KF, 5% glycerol, 0.1% CHAPS, 5 mM DTT; 2 h at RT; referenced to recruitment with 1 μM rosiglitazone
Sequence of recombinant PPARγ LBD ligand binding domain fused to N-terminal GFP (human) (P37231 whole entry, the tested form may be a part): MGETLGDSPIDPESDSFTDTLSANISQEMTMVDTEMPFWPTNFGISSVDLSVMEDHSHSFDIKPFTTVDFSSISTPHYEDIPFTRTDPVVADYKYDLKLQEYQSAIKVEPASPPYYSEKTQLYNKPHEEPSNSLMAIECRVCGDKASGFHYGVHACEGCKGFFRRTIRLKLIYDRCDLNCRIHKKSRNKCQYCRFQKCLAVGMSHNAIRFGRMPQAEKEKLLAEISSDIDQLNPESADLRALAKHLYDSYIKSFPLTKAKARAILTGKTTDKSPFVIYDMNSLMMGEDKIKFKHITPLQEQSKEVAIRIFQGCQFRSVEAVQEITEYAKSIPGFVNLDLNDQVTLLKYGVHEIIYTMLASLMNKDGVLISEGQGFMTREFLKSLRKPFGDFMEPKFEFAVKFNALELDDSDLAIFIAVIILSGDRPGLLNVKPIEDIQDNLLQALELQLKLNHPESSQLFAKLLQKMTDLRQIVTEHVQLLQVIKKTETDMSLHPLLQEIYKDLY

Molecule: CCOP(=O)(OCC)C(=Cc1cc(C(C)(C)C)c(O)c(C(C)(C)C)c1)P(=O)(OCC)OCC [SR12813]
EC50 (PXR): 140 nM

EC50 (PPARγ [1]): 5400 ± 1100 nM
Molecule: CC(=O)NCCOC(=O)[C@H](Oc1cccc(C(F)(F)F)c1)c1ccc(Cl)cc1 [arhalofenate]

Molecule: O=C(O)[C@H](Oc1cccc(C(F)(F)F)c1)c1ccc(Cl)cc1 [arhalofenic acid]
EC50 (murine PPARγ): 12000 nM
EC50 (PPARγ [1]): 470 ± 20 nM

Molecule: CCc1oc2ccccc2c1C(=O)c1cc(Br)c(O)c(Br)c1 [benzbromarone]
adiponectin plasma levels [2]: enhanced adiponectin plasma levels
expression of lipoprotein lipase (LPL) and acyl-CoA-synthetase [3]: induced
expression of CD36, adiponectin and FABP4 (aP2) (3T3-L1 mouse fibroblasts): significantly induced
PPARγ literature activity (PPARγ [4]; no precise activity value reported): active[24]***

EC50 (PPARα [6]): 6500 ± 500 nM
Molecule: CC(C)(Oc1ccc(C(=O)c2ccc(Cl)cc2)cc1)C(=O)O [fenofibric acid]

Molecule: CN(CCOc1ccc(CC2SC(=O)NC2=O)cc1)c1ccccn1 (centres unmarked) [rosiglitazone]
Adiponectin relative mRNA expression [7]: 455 ± 111%
CD36 relative mRNA expression [7]: 468 ± 8%
FABP4 relative mRNA expression [7]: 338 ± 46%
GLUT4 relative mRNA expression [7]: 695 ± 145%
lipid accumulation during differentiation (Oil Red O staining) (3T3-L1 adipocytes): massive accumulation of lipid droplets; also recorded: massive storage of fat

EC50 (PPARα [6]): 99 ± 5 nM
EC50 (PPARγ [1]): 49 ± 5 nM
Molecule: CCO[C@@H](Cc1ccc(OCCc2ccc(OS(C)(=O)=O)cc2)cc1)C(=O)O [tesaglitazar]
EC50 (PPARα [5]; hybrid transactivation assay, 40 hours incubation, read-out: PPARα (EC50) literature): 1700 nM
EC50 (murine PPARγ): 250 nM

% recruitment with lesinurad relative to 1 μM rosiglitazone [8]: 59%
EC50 of lesinurad for induced recruitment [8]: 44000 nM
Molecule: Biotin-NLVPDAASKHKQLSELLRGGSGS [CBP derived peptide (biotin-…)]
